In patent US20090226500A1, “SUTURES AND ANTI-SCARRING AGENTS” (Angiotech Pharmaceuticals, Inc, priority 2006, published 2009):
Where two headings read alike, the source gives them in different places.

What was measured:
[1] = tested on: E. coli UB1005 C498; assay: MIC microtitre broth dilution, E. coli; format: cell-based; conditions: E. coli UB1005 C498 wt Gram−, 24 h
Protocol: (§1) MIC assays were conducted essentially as described by Amsterdam, D 1996, “Susceptibility testing of antimicrobials in liquid media”, p. 52-111, in Loman, V, ed. Antibiotics in laboratory medicine, 4th ed Williams and Wilkins, Baltimore, Md.

[2] = tested on: P. aeruginosa PAE/K799 H187; assay: MIC microtitre broth dilution, P. aeruginosa; format: cell-based; conditions: P. aeruginosa PAE/K799 H187 wt Gram−, 24 h
Protocol: as §1

[3] = tested on: S. aureus ATCC25923 C622; assay: MIC microtitre broth dilution, S. aureus; format: cell-based; conditions: S. aureus ATCC25923 C622 wt Gram+, 24 h
Protocol: as §1

[4] = tested on: K. pneumoniae ATCC13883 C238; assay: MIC microtitre broth dilution, K. pneumoniae; format: cell-based; conditions: K. pneumoniae ATCC13883 C238 wt Gram−, 24 h
Protocol: as §1

[5] = tested on: S. epidermidis C621; assay: MIC microtitre broth dilution, S. epidermidis; format: cell-based; conditions: S. epidermidis C621 wt Gram+, 24 h
Protocol: as §1

[6] = tested on: S. pyogenes C721; assay: MIC microtitre broth dilution, S. pyogenes; format: cell-based; conditions: S. pyogenes C721 wt Gram+, Todd Hewitt broth
Protocol: as §1

[7] = tested on: Smooth muscle cells; assay: Proliferation of smooth muscle cells; format: cell-based; conditions: 72 hours, CYQUANT; read-out: IC50 proliferation of smooth muscle cells
Summary of the method: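 Smooth muscle cells at 600 cells/well, exposed to paclitaxel (DMSO stocks 10^−8 to 10^−2 M) in triplicate for 72 h at 37 °C. Proliferation read with CyQUANT GR dye in lysis buffer.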

[8] = tested on: MCP-1 production by THP-1 cells; assay: MCP-1 production by macrophages; format: cell-based, human; conditions: THP-1 cells stimulated with opsonized zymosan, 24 hours, read-out: IC50 MCP-1 production
Protocol: The human macrophage cell line, THP-1 was plated in a 12 well plate such that each well contains 1×10^6 cells in 2 ml of media containing 10% FCS. Opsonized zymosan was prepared by resuspending 20 mg of zymosan A in 2 ml of ddH2O and homogenizing until a uniform suspension was obtained. Homogenized zymosan was pelleted at 250 g and resuspended in 4 ml of human serum for a final concentration of 5 mg/ml and incubated in a 37° C. water bath for 20 minutes to enable opsonization. Geldanamycin was prepared in DMSO at a concentration of 10^−2 M and serially diluted 10-fold to give a range of stock concentrations (10^−8 M to 10^−2 M).
THP-1 cells were stimulated to produce MCP-1 by the addition of 1 mg/ml opsonized zymosan. […] was added to THP-1 cells by directly adding DMSO stock solutions, prepared earlier, at a 1/1000 dilution, to each well. Each drug concentration was tested in triplicate wells. Plates were incubated at 37° C. for 24 hours.
After a 24-hour stimulation, supernatants were collected to quantify MCP-1 production. MCP-1 concentrations in the supernatants were determined by ELISA using recombinant human MCP-1 to obtain a standard curve. A 96-well MaxiSorb plate was coated with 100 μL of anti-human MCP-1 Capture Antibody diluted in Coating Buffer (0.1M sodium carbonate pH 9.5) overnight at 4° C. The dilution of Capture Antibody used was lot-specific and was determined empirically. Capture antibody was then aspirated and the plate washed 3 times with Wash Buffer (PBS, 0.05% TWEEN-20). Plates were blocked for 1 hour at room temperature with 200 μL/well of Assay Diluent (PBS, 10% FCS pH 7.0). After blocking, plates were washed 3 times with Wash Buffer. […] Sample supernatants and standards were assayed in triplicate and were incubated at room temperature for 2 hours after addition to the plate coated with Capture Antibody. The plates were washed 5 times and incubated with 100 μL of Working Detector (biotinylated anti-human MCP-1 detection antibody+avidin-HRP) for 1 hour at room temperature. Following this incubation, the plates were washed 7 times and 100 μL of Substrate Solution (tetramethylbenzidine, H2O2) was added to plates and incubated for 30 minutes at room temperature. […] Mean absorbance was determined from triplicate data readings and the mean background was subtracted. MCP-1 concentration values were obtained from the standard curve.

SMILES | Minimum inhibitory concentration [1] | Minimum inhibitory concentration [2] | Minimum inhibitory concentration [3] | Minimum inhibitory concentration [4] | Minimum inhibitory concentration [5] | Minimum inhibitory concentration [6] | IC50 [7] [nM] | IC50 ([8]; Homo sapiens) [nM] | IC50 [8] [nM]
O=c1[nH]cc(F)c(=O)[nH]1 [5-fluorouracil] | 10^−6 Molar | 10^−5 Molar | 10^−7 Molar | 10^−6 Molar | 10^−7 Molar | 10^−4 Molar | – | – | –
CC[C@@]1(O)C(=O)OCc2c1cc1n(c2=O)Cc2cc3ccccc3nc2-1 [camptothecin] | N | N | N | N | 10^−4 Molar | N | – | – | –
N.N.[Cl][Pt][Cl] [cisplatin] | N | 10^−4 Molar | N | N | N | N | – | – | –
Nc1ccn([C@@H]2O[C@H](CO)[C@@H](O)[C@@H]2O)c(=O)n1 [cytarabine] | N | N | N | N | N | N | 85 | – | –
COc1cccc2c1C(=O)c1c(O)c3c(c(O)c1C2=O)C[C@@](O)(C(=O)CO)C[C@@H]3O[C@H]1C[C@H](N)[C@H](O)[C@H](C)O1 [doxorubicin] | 10^−4 Molar | 10^−5 Molar | 10^−5 Molar | 10^−6 Molar | 10^−6 Molar | 10^−7 Molar | 64 | – | –
COc1cc([C@@H]2c3cc4c(cc3[C@@H](O[C@@H]3O[C@@H]5CO[C@@H](C)O[C@H]5[C@H](O)[C@H]3O)[C@H]3COC(=O)[C@H]23)OCO4)cc(OC)c1O [etoposide] | N | N | 10^−5 Molar | 10^−5 Molar | 10^−6 Molar | 10^−5 Molar | 320 | – | –
NC(=O)NO [hydroxyurea] | N | 10^−4 Molar | N | N | N | 10^−4 Molar | – | – | –
CN(Cc1cnc2nc(N)nc(N)c2n1)c1ccc(C(=O)N[C@@H](CCC(=O)O)C(=O)O)cc1 [methotrexate] | N | N | 10^−5 Molar | 10^−6 Molar | N | 10^−6 Molar | – | – | –
O=C1c2c(O)ccc(O)c2C(=O)c2c(NCCNCCO)ccc(NCCNCCO)c21 [mitoxantrone, 9,10-anthracenedione, 1,4-dihydroxy-5,8-bis((2-((2-hydroxyethyl)amino)ethyl)amino)-] | 10^−5 Molar | – | – | – | – | – | 1 | 62 | –
Nc1ncnc2c1ccn2[C@@H]1O[C@H](CO)[C@@H](O)[C@H]1O [tubercidin] | N | N | N | N | N | N | 30 | – | 56
